Laboratory results published in patent US8471005B2 (Cephalon, Inc., priority 2008, dated 2013).
Read-outs that look alike come from different tables or passages of the source.

Key:
ALK = target: T1, ALK (Homo sapiens, UniProt Q9UM73); test: ALK Kinase Assay (ELISA/TRF, PLC-γ substrate); assay type: biochemical; conditions: read-out: ALK Potency
T1 construct: host or cells: baculovirus expression system
Method in brief: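 Time-resolved fluorescence ELISA using Eu-N1 PT66 antibody to detect phosphorylated PLC-γ (coated at 10 μg/mL). Enzyme at 30 ng/ml ALK; 15 min incubation, 37° C.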

JAK2 = target: T2, JAK2 (Homo sapiens, UniProt O60674); test: Recombinant Human JAK2 Kinase Assay (TRF); assay type: biochemical; conditions: read-out: JAK2 Potency
T2 construct: host or cells: baculovirus expression system
Method in brief: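 Kinase activity of baculovirus-expressed JAK2 is followed on a surface-immobilised biotinylated peptide, with the reaction run for 20 min at room temperature in buffer containing 0.2 μM ATP and manganese. Phosphorylation is read with Eu-N1 PY100 antibody.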

[1] = ALK kinase inhibition, 1 μM ATP
[2] = JAK2 kinase inhibition, 0.2 μM ATP

T1 sequence (Q9UM73 19-1620): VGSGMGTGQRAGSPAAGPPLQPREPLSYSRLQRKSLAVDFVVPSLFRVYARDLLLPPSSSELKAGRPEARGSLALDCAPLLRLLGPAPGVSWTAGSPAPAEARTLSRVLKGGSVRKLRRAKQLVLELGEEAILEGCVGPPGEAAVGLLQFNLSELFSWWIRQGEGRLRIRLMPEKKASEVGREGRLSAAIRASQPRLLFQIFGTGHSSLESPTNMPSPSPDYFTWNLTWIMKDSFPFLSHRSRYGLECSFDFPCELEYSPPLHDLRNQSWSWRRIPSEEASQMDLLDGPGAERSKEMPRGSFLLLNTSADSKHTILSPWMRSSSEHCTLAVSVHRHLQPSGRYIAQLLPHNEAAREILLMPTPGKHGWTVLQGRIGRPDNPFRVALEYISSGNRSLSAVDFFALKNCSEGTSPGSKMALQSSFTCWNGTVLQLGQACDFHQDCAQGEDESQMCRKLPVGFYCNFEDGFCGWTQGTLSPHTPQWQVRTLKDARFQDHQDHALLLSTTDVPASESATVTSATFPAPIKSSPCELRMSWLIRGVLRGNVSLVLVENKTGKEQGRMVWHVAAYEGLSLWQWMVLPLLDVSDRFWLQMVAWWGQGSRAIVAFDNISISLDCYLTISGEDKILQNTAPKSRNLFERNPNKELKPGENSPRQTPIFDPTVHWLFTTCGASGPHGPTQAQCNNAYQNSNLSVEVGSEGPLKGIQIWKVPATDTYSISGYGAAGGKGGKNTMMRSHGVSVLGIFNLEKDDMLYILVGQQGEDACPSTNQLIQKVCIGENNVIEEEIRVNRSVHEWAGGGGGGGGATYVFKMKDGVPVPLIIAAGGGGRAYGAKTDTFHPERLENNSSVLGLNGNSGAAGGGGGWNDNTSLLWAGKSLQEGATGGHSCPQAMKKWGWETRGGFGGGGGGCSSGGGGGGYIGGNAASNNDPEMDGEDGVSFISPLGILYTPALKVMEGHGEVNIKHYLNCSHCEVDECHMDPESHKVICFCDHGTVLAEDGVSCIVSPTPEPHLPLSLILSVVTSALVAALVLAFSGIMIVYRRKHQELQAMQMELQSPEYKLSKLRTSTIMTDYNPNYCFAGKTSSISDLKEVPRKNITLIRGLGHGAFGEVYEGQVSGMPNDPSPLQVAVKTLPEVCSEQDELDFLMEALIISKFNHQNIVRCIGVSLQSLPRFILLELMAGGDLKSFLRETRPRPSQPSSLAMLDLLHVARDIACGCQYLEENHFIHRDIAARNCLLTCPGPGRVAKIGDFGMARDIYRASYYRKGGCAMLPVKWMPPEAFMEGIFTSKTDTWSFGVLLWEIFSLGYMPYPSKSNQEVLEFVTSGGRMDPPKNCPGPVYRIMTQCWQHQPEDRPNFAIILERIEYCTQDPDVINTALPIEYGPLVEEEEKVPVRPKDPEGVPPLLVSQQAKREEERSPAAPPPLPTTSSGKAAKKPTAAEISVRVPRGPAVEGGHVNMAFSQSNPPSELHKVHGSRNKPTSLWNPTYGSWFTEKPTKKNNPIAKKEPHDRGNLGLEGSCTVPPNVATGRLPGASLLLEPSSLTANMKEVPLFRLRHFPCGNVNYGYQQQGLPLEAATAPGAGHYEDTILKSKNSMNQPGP
T2 sequence (O60674 whole entry): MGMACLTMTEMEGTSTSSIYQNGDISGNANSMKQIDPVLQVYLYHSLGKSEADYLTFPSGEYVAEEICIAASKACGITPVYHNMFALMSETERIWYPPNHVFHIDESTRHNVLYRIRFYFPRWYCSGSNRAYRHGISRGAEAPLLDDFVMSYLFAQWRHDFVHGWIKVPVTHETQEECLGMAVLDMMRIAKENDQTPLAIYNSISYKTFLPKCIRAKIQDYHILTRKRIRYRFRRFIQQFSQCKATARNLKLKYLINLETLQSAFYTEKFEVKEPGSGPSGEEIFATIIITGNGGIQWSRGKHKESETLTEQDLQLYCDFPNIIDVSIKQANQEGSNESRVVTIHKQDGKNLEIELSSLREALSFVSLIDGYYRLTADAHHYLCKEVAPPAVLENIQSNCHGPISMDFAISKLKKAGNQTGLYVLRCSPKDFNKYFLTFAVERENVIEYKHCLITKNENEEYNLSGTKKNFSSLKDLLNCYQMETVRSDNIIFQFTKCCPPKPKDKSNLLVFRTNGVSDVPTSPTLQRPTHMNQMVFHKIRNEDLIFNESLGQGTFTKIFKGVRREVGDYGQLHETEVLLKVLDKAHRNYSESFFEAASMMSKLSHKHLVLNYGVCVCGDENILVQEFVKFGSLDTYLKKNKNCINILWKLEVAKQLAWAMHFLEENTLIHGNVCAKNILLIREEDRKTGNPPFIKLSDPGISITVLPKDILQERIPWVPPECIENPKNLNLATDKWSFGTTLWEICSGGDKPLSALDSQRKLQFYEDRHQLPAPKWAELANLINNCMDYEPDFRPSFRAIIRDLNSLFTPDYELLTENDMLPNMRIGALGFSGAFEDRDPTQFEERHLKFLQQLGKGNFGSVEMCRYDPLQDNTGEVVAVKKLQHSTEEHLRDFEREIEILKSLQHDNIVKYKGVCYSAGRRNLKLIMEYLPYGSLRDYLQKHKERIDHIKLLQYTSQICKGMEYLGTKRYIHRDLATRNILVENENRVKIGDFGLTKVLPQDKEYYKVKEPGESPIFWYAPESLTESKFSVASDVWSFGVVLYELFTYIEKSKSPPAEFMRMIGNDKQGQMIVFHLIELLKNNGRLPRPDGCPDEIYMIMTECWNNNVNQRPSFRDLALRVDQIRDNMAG

Molecule	IC50 (ALK; [1])	IC50 (JAK2; [2])	IC50 (ALK; ALK Kinase Inhibition)	IC50 (JAK2; JAK2 Kinase Inhibition)
CC(C)(C)OC(=O)N1CCC=C(c2ccc3cnc(Nc4ccc(C5CCN(CC(N)=O)CC5)cc4)nn23)C1 [Example 675, 5-{2-[4-(1-Carbamoylmethyl-piperidin-4-yl)-phenylamino]-pyrrolo[2,1-f][1,2,4]triazin-7-yl}-3,6-dihydro-2H-pyridine-1-carboxylic acid tert-butyl ester]	1000 to 10000 nM	< 100 nM		
COc1ccccc1-c1ccn2nc(Nc3ccc(N4CCN(C)CC4)cc3)ncc12 [Example 42, [5-(2-Methoxy-phenyl)-pyrrolo[2,1-f][1,2,4]triazin-2-yl]-[4-(4-methyl-piperazin-1-yl)-phenyl]-amine]			> 10000 nM	100 to 1000 nM
[7-(3-Chloro-phenyl)-pyrrolo[2,1-f][1,2,4]triazin-2-yl]-{4-[2-(4-ethyl-piperazin-1-yl)-ethoxy]-phenyl}-amine [Example 93]			< 100 nM	< 100 nM
c1ccc2c(c1)cc1cnc(Nc3ccc(N4CCOCC4)cc3)nn12 [Example 261, (4-Morpholin-4-yl-phenyl)-[1,2,4]triazino[1,6-a]indol-2-yl-amine]			100 to 1000 nM	< 100 nM
CN1CCN(C2CCN(c3ccc(Nc4ncc5cc6ccccc6n5n4)cc3)CC2)CC1 [Example 264, {4-[4-(4-Methyl-piperazin-1-yl)-piperidin-1-yl]-phenyl}-[1,2,4]triazino[1,6-a]indol-2-yl-amine]			1000 to 10000 nM	< 100 nM
CN1CCN(C2CCCN(c3ccc(Nc4ncc5ccc(-c6ccc(S(C)(=O)=O)cc6)n5n4)cc3)C2)CC1 (stereo not shown) [Example 351, [7-(4-Methanesulfonyl-phenyl)-pyrrolo[2,1-f][1,2,4]triazin-2-yl]-{4-[3-(4-methyl-piperazin-1-yl)-piperidin-1-yl]-phenyl}-amine]			100 to 1000 nM	< 100 nM
COc1cc(C2CCN(C[C@H](O)CO)CC2)ccc1Nc1ncc2ccc(-c3ccccc3OC)n2n1 [Example 761, (S)-3-(4-{3-Methoxy-4-[7-(2-methoxy-phenyl)-pyrrolo[2,1-f][1,2,4]triazin-2-ylamino]-phenyl}-piperidin-1-yl)-propane-1,2-diol]	< 100 nM	100 to 1000 nM		
CN1CCOCc2cc(Nc3ncc4ccc(-c5cccc(NS(C)(=O)=O)c5)n4n3)ccc21 [Example 619, N-{3-[2-(1-Methyl-1,2,3,5-tetrahydro-benzo[e][1,4]oxazepin-7-ylamino)-pyrrolo[2,1-f][1,2,4]triazin-7-yl]-phenyl}-methanesulfonamide]	100 to 1000 nM	< 100 nM		
CN1CCN(c2ccc(Nc3ncc4ccc(-c5ccccc5)n4n3)cc2)CC1 [Example 7, [4-(4-Methyl-piperazin-1-yl)-phenyl]-(7-phenyl-pyrrolo[2,1-f][1,2,4]triazin-2-yl)-amine]			< 100 nM	< 100 nM
CS(=O)(=O)c1ccc(-c2ccc3cnc(Nc4ccc(C5CCN(CCO)CC5)cc4)nn23)cc1 [Example 679, 2-(4-{4-[7-(4-Methanesulfonyl-phenyl)-pyrrolo[2,1-f][1,2,4]triazin-2-ylamino]-phenyl}-piperidin-1-yl)-ethanol]	< 100 nM	< 100 nM		
c1ccc(Sc2ccc3cnc(Nc4ccc(N5CCOCC5)cc4)nn23)cc1 [Example 97, (4-Morpholin-4-yl-phenyl)-(7-phenylsulfanyl-pyrrolo[2,1-f][1,2,4]triazin-2-yl)-amine]			100 to 1000 nM	< 100 nM
CN1CCN(c2cccc(Nc3ncc4ccc(-c5cccc(NCCS(C)(=O)=O)c5)n4n3)c2)CC1 [Example 894, {7-[3-(2-Methanesulfonyl-ethylamino)-phenyl]-pyrrolo[2,1-f][1,2,4]triazin-2-yl}-[3-(4-methyl-piperazin-1-yl)-phenyl]-amine]	100 to 1000 nM	< 100 nM		
COc1cc(Cn2ccnc2C)ccc1Nc1ncc2ccc(-c3ccccc3N(C)S(C)(=O)=O)n2n1 [Example 505, N-(2-{2-[2-Methoxy-4-(2-methyl-imidazol-1-ylmethyl)-phenylamino]-pyrrolo[2,1-f][1,2,4]triazin-7-yl}-phenyl)-N-methyl-methanesulfonamide]	< 100 nM	1000 to 10000 nM		
3-(2-{2-[3-(2-Methoxy-1-methyl-ethoxy)-phenylamino]-pyrrolo[2,1-f][1,2,4]triazin-7-yl}-pyrrol-1-yl)-propionitrile [Example 1295]	> 10000 nM	100 to 1000 nM		
O=S(=O)(c1ccc(-c2ccc3cnc(Nc4ccc(N5CCOCC5)cc4)nn23)cc1)N1CCCC1 [Example 63, (4-Morpholin-4-yl-phenyl)-{7-[4-(pyrrolidine-1-sulfonyl)-phenyl]-pyrrolo[2,1-f][1,2,4]triazin-2-yl}-amine]			> 10000 nM	< 100 nM
CN(c1cccc(-c2ccc3cnc(Nc4ccc(C5CCN(CCO)CC5)cc4)nn23)c1)S(C)(=O)=O [Example 961, N-[3-(2-{4-[1-(2-Hydroxy-ethyl)-piperidin-4-yl]-phenylamino}-pyrrolo[2,1-f][1,2,4]triazin-7-yl)-phenyl]-N-methyl-methanesulfonamide]	100 to 1000 nM	< 100 nM		
CN(c1ccccc1-c1ccc2cnc(Nc3ccc(N4CCOCC4)cc3)nn12)S(C)(=O)=O [Example 626, N-Methyl-N-{2-[2-(4-morpholin-4-yl-phenylamino)pyrrolo[2,1-f][1,2,4]triazin-7-yl]phenyl}methanesulfonamide]	100 to 1000 nM	< 100 nM		
CN(C)S(=O)(=O)c1cccc(Nc2ncc3cc4ccccc4n3n2)c1 [Example 273, N,N-Dimethyl-3-([1,2,4]triazino[1,6-a]indol-2-ylamino)-benzenesulfonamide]			> 10000 nM	100 to 1000 nM

The remaining lines, values ahead:

IC50 (ALK; [1])	IC50 (JAK2; [2])	IC50 (ALK; ALK Kinase Inhibition)	IC50 (JAK2; JAK2 Kinase Inhibition)	Molecule
100 to 1000 nM	100 to 1000 nM			COc1cc(N2CCN(c3ccccn3)CC2)ccc1Nc1ncc2ccc(-c3ccccc3OC)n2n1 [Example 994, [7-(2-Methoxy-phenyl)-pyrrolo[2,1-f][1,2,4]triazin-2-yl]-[2-methoxy-4-(4-pyridin-2-yl-piperazin-1-yl)-phenyl]-amine]
		100 to 1000 nM	< 100 nM	C[C@H](O)CN1CCC(c2ccc(Nc3ncc4ccc(-c5cccc(S(C)(=O)=O)c5)n4n3)cc2)CC1 [Example 1431, (S)-1-(4-{4-[7-(3-Methanesulfonyl-phenyl)-pyrrolo[2,1-f][1,2,4]triazin-2-ylamino]-phenyl}-piperidin-1-yl)-propan-2-ol]
		100 to 1000 nM	< 100 nM	CN1CCN(Cc2nc3ccc(Nc4ncc5ccc(-c6ccccc6N(C)S(C)(=O)=O)n5n4)cc3[nH]2)CC1 [Example 1525, N-Methyl-N-(2-{2-[2-(4-methyl-piperazin-1-ylmethyl)-3H-benzimidazol-5-ylamino]-pyrrolo[2,1-f][1,2,4]triazin-7-yl}-phenyl)-methanesulfonamide]
100 to 1000 nM	< 100 nM			CN1CCN(c2ccc(Nc3ncc4ccc(-c5cnn(C)c5)n4n3)cc2F)CC1 [Example 1215, [3-Fluoro-4-(4-methyl-piperazin-1-yl)-phenyl]-[7-(1-methyl-1H-pyrazol-4-yl)-pyrrolo[2,1-f][1,2,4]triazin-2-yl]-amine]
		< 100 nM	100 to 1000 nM	COc1cc(N2CCC(N3CCOCC3)CC2)ccc1Nc1ncc2ccc(-c3ccccc3N(C)S(C)(=O)=O)n2n1 [Example 1453, N-(2-{2-[2-Methoxy-4-(4-morpholin-4-yl-piperidin-1-yl)-phenylamino]-pyrrolo[2,1-f][1,2,4]triazin-7-yl}-phenyl)-N-methyl-methanesulfonamide]
		< 100 nM	< 100 nM	CCN(c1ccccc1-c1ccc2cnc(Nc3ccc(N4CCC(N5CCOCC5)CC4)cc3OC)nn12)S(C)(=O)=O [Example 1460, N-Ethyl-N-(2-{2-[2-methoxy-4-(4-morpholin-4-yl-piperidin-1-yl)-phenylamino]-pyrrolo[2,1-f][1,2,4]triazin-7-yl}-phenyl)-methanesulfonamide]
100 to 1000 nM	< 100 nM			CN1CCN(c2ccc(Nc3ncc4ccc(-c5cccc(N6CCNCC6)c5)n4n3)cc2)CC1 [Example 1169, [4-(4-Methyl-piperazin-1-yl)-phenyl]-[7-(3-piperazin-1-yl-phenyl)-pyrrolo[2,1-f][1,2,4]triazin-2-yl]-amine]
< 100 nM	< 100 nM			CN1CCN(c2cccc(Nc3ncc4ccc(-c5cccc(CCC#N)c5)n4n3)c2)CC1 [Example 1153, 3-(3-{2-[3-(4-Methyl-piperazin-1-yl)-phenylamino]-pyrrolo[2,1-f][1,2,4]triazin-7-yl}-phenyl)-propionitrile]
		1000 to 10000 nM	< 100 nM	CN1CCN(Cc2nc3cc(Nc4ncc5ccc(-c6ccc(S(C)(=O)=O)cc6)n5n4)ccc3[nH]2)CC1 [Example 1542, [7-(4-Methanesulfonyl-phenyl)-pyrrolo[2,1-f][1,2,4]triazin-2-yl]-[2-(4-methyl-piperazin-1-ylmethyl)-1H-benzimidazol-5-yl]-amine]
		100 to 1000 nM	< 100 nM	CC(C)(C)NS(=O)(=O)c1cccc(-c2ccc3cnc(Nc4ccc(N5CCN(CC(N)=O)CC5)c(F)c4)nn23)c1 [Example 1407, 2-(4-{4-[7-(3-tert-Butylsulfamoyl-phenyl)-pyrrolo[2,1-f][1,2,4]triazin-2-ylamino]-2-fluoro-phenyl}-piperazin-1-yl)-acetamide]
1000 to 10000 nM	< 100 nM			CC(=O)Nc1cccc(Nc2ncc3ccc(-c4ccc[nH]4)n3n2)c1 [Example 1292, N-{3-[7-(1H-Pyrrol-2-yl)-pyrrolo[2,1-f][1,2,4]triazin-2-ylamino]-phenyl}-acetamide]
